Reference: patent US20140356325A1, “NOVEL 2'-C-METHYL NUCLEOSIDE DERIVATIVE COMPOUNDS” (Ligand Pharmaceuticals Incorporated, priority 2012, published 2014)
Structures can show the parent of a compound that is named as a salt.

Compound COC(C)(C)CCOc1nc(N)nc2c1ncn2[C@@H]1O[C@H](CO[P@@]2(=O)OCC[C@@H](c3cccc(Cl)c3)O2)[C@H]2OC(=O)O[C@]21C [Compound 138, 2(R)-(2-Amino-6-(3-methyl-3-methoxybutyloxy)-9 (H)-purinyl)-4(R)-(4(S)-(3-chlorophenyl)-2-oxo-1,3,2-dioxaphosphorinan-2(R)-yloxymethyl)-1(R)-methyl-7-oxo-3,6,8-trioxa-cis-bicyclo[3.3.0]octane] has a melting point of 93 to 96 °C.
Work on C[C@@]12OC(=O)O[C@@H]1[C@@H](CO[P@@]1(=O)OCC[C@@H](c3cccc(Cl)c3)O1)O[C@H]2n1cnc2c(OC3CCCC3)nc(N)nc21 [Compound 125, 2(R)-(2-Amino-6-cyclopentyloxy-9(H)-purinyl)-4(R)-(4(S)-(3-chlorophenyl)-2-oxo-1,3,2-dioxaphosphorinan-2(R)-yloxymethyl)-1(R)-methyl-7-oxo-3,6,8-trioxa-cis-bicyclo[3.3.0]octane] yielded a melting point of 107 to 109 °C.
For C[C@@]12OC(=O)O[C@@H]1[C@@H](CO[P@@]1(=O)OCC[C@@H](c3cccc(Cl)c3)O1)O[C@H]2n1cnc2c(OCC3CCC3)nc(N)nc21 [Compound 140, 2(R)-(2-Amino-6-cyclobutylmethoxy-9(H)-purinyl)-4(R)-(4(S)-(3-chlorophenyl)-2-oxo-1,3,2-dioxaphosphorinan-2(R)-yloxymethyl)-1(R)-methyl-7-oxo-3,6,8-trioxa-cis-bicyclo[3.3.0]octane], the melting point was 92 to 94 °C.
In the case of CCOc1nc(N)nc2c1ncn2[C@@H]1O[C@H](CO[P@@]2(=O)OCC[C@@H](c3cccc(Cl)c3)O2)[C@@H](OC(=O)C2CCCC2)[C@@]1(C)O [Compound 186, 2(R)-(2-Amino-6-ethoxy-9(H)-purinyl)-5(R)-(4(S)-(3-chlorophenyl)-2-oxo-1,3,2-dioxaphosphorinan-2(R)-yloxymethyl)-3(R)-hydroxy-3(R)-methyl-4(R)-cyclopentylcarboxy-tetrahydrofuran], the melting point was 106 to 111 °C.
CC(C)C(=O)O[C@@H]1[C@@H](CO[P@@]2(=O)OCC[C@@H](c3cccc(Cl)c3)O2)O[C@@H](n2cnc3c(O)nc(N)nc32)[C@]1(C)O [Compound 117, 2(R)-(2-Amino-6-hydroxy-9(H)-purinyl)-5(R)-(4(S)-(3-chlorophenyl)-2-oxo-1,3,2-dioxaphosphorinan-2(R)-yloxymethyl)-3(R)-hydroxy-3(R)-methyl-4(R)-(2-methyl-1-oxopropoxy)-tetrahydrofuran] showed a melting point greater than 200 °C.
Compound CCOc1nc(N)nc2c1ncn2[C@@H]1O[C@H](CO[P@@]2(=O)OCC[C@@H](c3ccccc3)O2)[C@H]2OC(=O)O[C@]21C [Compound 182, 2(R)-(2-Amino-6-ethoxy-9(H)-purinyl)-4(R)-(4(S)-phenyl-2-oxo-1,3,2-dioxaphosphorinan-2(R)-yloxymethyl)-1(R)-methyl-7-oxo-3,6,8-trioxa-cis-bicyclo[3.3.0]octane] has a melting point of 105 to 107 °C.
CCOc1nc(N)nc2c1ncn2[C@@H]1O[C@H](CO[P@@]2(=O)OCC[C@@H](c3cc(F)cc(F)c3)O2)[C@H]2OC(=O)O[C@]21C [Compound 126, 2(R)-(2-Amino-6-ethoxy-9(H)-purinyl)-4(R)-(4(S)-(3,5-difluorophenyl)-2-oxo-1,3,2-dioxaphosphorinan-2(R)-yloxymethyl)-1(R)-methyl-7-oxo-3,6,8-trioxa-cis-bicyclo[3.3.0]octane] showed a melting point of 96 to 98 °C.
In the case of CCOc1nc(N)nc2c1ncn2[C@@H]1O[C@H](CO[P@@]2(=O)OCC[C@@H](c3cccc(Br)c3)O2)[C@H]2OC(=O)O[C@]21C [Compound 123, 2(R)-(2-Amino-6-ethoxy-9(H)-purinyl)-4(R)-(4(S)-(3-bromophenyl)-2-oxo-1,3,2-dioxaphosphorinan-2(R)-yloxymethyl)-1(R)-methyl-7-oxo-3,6,8-trioxa-cis-bicyclo[3.3.0]octane], the melting point was 77 to 80 °C.
Compound CCOc1nc(N)nc2c1ncn2[C@@H]1O[C@H](CO[P@@]2(=O)OCC[C@@H](c3cccc(Cl)c3)O2)[C@@H](OC(=O)[C@@H](N)C(C)C)[C@@]1(C)O (as salt: trifluoroacetate) [Compound 184, 2(R)-(2-Amino-6-ethoxy-9(H)-purinyl)-5(R)-(4(S)-(3-chlorophenyl)-2-oxo-1,3,2-dioxaphosphorinan-2(R)-yloxymethyl)-3(R)-hydroxy-3(R)-methyl-4(R)-L-valinyl-tetrahydrofuran] has a melting point of 128 to 130 °C.
With CCOc1nc(N)nc2c1ncn2[C@@H]1O[C@H](CO[P@]2(=O)OCC[C@H](c3cc(Cl)cc(Cl)c3)O2)[C@H]2OC(=O)O[C@]21C [Compound 128, 2(R)-(2-Amino-6-ethoxy-9(H)-purinyl)-4(R)-(4(R)-(3,5-dichlorophenyl)-2-oxo-1,3,2-dioxaphosphorinan-2(S)-yloxymethyl)-1(R)-methyl-7-oxo-3,6,8-trioxa-cis-bicyclo[3.3.0]octane] the melting point was 101 to 103 °C.
Work on CC(C)CCOc1nc(N)nc2c1ncn2[C@@H]1O[C@H](CO[P@@]2(=O)OCC[C@@H](c3cccc(Cl)c3)O2)[C@H]2OC(=O)O[C@]21C [Compound 134, 2(R)-(2-Amino-6-(3-methylbutyloxy)-9(H)-purinyl)-4(R)-(4(S)-(3-chlorophenyl)-2-oxo-1,3,2-dioxaphosphorinan-2(R)-yloxymethyl)-1(R)-methyl-7-oxo-3,6,8-trioxa-cis-bicyclo[3.3.0]octane] yielded a melting point of 76 to 78 °C.
Work on COc1nc(N)nc2c1ncn2[C@@H]1O[C@H](CO[P@@]2(=O)OCC[C@@H](c3cccc(Cl)c3)O2)[C@H]2OC(=O)O[C@]21C [Compound 119, 2(R)-(2-Amino-6-methoxy-9(H)-purinyl)-4(R)-(4(S)-(3-chlorophenyl)-2-oxo-1,3,2-dioxaphosphorinan-2(R)-yloxymethyl)-1(R)-methyl-7-oxo-3,6,8-trioxa-cis-bicyclo[3.3.0]octane] yielded a melting point of 125 to 130 °C.
Compound C[C@@]12OC(=O)O[C@@H]1[C@@H](CO[P@@]1(=O)OCC[C@@H](c3cc(F)cc(F)c3)O1)O[C@H]2n1cnc2c(O)nc(N)nc21 [Compound 101, 2(R)-(2-Amino-6-hydroxy-9(H)-purinyl)-4(R)-(4(S)-(3,5-difluorophenyl)-2-oxo-1,3,2-dioxaphosphorinan-2-(R)-yloxymethyl)-1(R)-methyl-7-oxo-3,6,8-trioxa-cis-bicyclo[3.3.0]octane] has a melting point of 234 to 236 °C.
With CC(C)(C)COc1nc(N)nc2c1ncn2[C@@H]1O[C@H](CO[P@@]2(=O)OCC[C@@H](c3cccc(Cl)c3)O2)[C@H]2OC(=O)O[C@]21C [Compound 147, 2(R)-(2-Amino-6-(2,2-dimethylpropyloxy)-9(H)-purinyl)-4(R)-(4(S)-(3-chlorophenyl)-2-oxo-1,3,2-dioxaphosphorinan-2(R)-yloxymethyl)-1(R)-methyl-7-oxo-3,6,8-trioxa-cis-bicyclo[3.3.0]octane] the melting point was 88 to 91 °C.
Work on CSCCCOc1nc(N)nc2c1ncn2[C@@H]1O[C@H](CO[P@@]2(=O)OCC[C@@H](c3cccc(Cl)c3)O2)[C@H]2OC(=O)O[C@]21C [Compound 130, 2(R)-(2-Amino-6-(3-methylthiopropyloxy)-9(H)-purinyl)-4(R)-(4(S)-(3-chlorophenyl)-2-oxo-1,3,2-dioxaphosphorinan-2(R)-yloxymethyl)-1(R)-methyl-7-oxo-3,6,8-trioxa-cis-bicyclo[3.3.0]octane] yielded a melting point of 79 to 82 °C.
Compound CCOc1nc(N)nc2c1ncn2[C@@H]1O[C@H](CO[P@@]2(=O)OCC[C@@H](c3cc(Cl)cc(Cl)c3)O2)[C@H]2OC(=O)O[C@]21C [Compound 127, 2(R)-(2-Amino-6-ethoxy-9(H)-purinyl)-4(R)-(4(S)-(3,5-dichlorophenyl)-2-oxo-1,3,2-dioxaphosphorinan-2(R)-yloxymethyl)-1(R)-methyl-7-oxo-3,6,8-trioxa-cis-bicyclo[3.3.0]octane] has a melting point of 101 to 103 °C.
C[C@@]12OC(=O)O[C@@H]1[C@@H](CO[P@@]1(=O)OCC[C@@H](c3cccc(C#N)c3)O1)O[C@H]2n1cnc2c(O)nc(N)nc21 [Compound 109, 2(R)-(2-Amino-6-hydroxy-9 (H)-purinyl)-4(R)-(4(S)-(3-cyanophenyl)-2-oxo-1,3,2-dioxaphosphorinan-2(R)-yloxymethyl)-1(R)-methyl-7-oxo-3,6,8-trioxa-cis-bicyclo[3.3.0]octane] showed a melting point of 218 to 220 °C.
Compound C[C@@]12OC(=O)O[C@@H]1[C@@H](CO[P@@]1(=O)OCC[C@@H](c3cccc(Cl)c3)O1)O[C@H]2n1cnc2c(OCC3CC4CCC3C4)nc(N)nc21 (stereo partly drawn) [Compound 139, 2(R)-(2-Amino-6-(2-bicyclo[2.2.1]heptanylmethoxy)-9(H)-purinyl)-4(R)-(4(S)-(3-chlorophenyl)-2-oxo-1,3,2-dioxaphosphorinan-2(R)-yloxymethyl)-1(R)-methyl-7-oxo-3,6,8-trioxa-cis-bicyclo[3.3.0]octane] has a melting point of 99 to 101 °C.
With CCCCCOc1nc(N)nc2c1ncn2[C@@H]1O[C@H](CO[P@@]2(=O)OCC[C@@H](c3cccc(Cl)c3)O2)[C@H]2OC(=O)O[C@]21C [Compound 150, 2(R)-(2-Amino-6-pentyloxy-9(H)-purinyl)-4(R)-(4(S)-(3-chlorophenyl)-2-oxo-1,3,2-dioxaphosphorinan-2(R)-yloxymethyl)-1(R)-methyl-7-oxo-3,6,8-trioxa-cis-bicyclo[3.3.0]octane] the melting point was 80 to 82 °C.
CCOc1nc(N)nc2c1ncn2[C@@H]1O[C@H](CO[P@@]2(=O)OCC[C@@H](c3cccc(Cl)c3)O2)[C@@H](OC(=O)C(C)C)[C@@]1(C)O (as salt: trifluoroacetate) [Compound 185, 2(R)-(2-Amino-6-ethoxy-9(H)-purinyl)-5(R)-(4(S)-(3-chlorophenyl)-2-oxo-1,3,2-dioxaphosphorinan-2(R)-yloxymethyl)-3(R)-hydroxy-3(R)-methyl-4(R)-isobutyryloxy-tetrahydrofuran] gave a melting point of 162 to 165 °C.
C[C@@]12OC(=O)O[C@@H]1[C@@H](CO[P@@]1(=O)OCC[C@@H](c3cccc(Cl)c3)O1)O[C@H]2n1cnc2c(O)nc(N)nc21 [Compound 106, 2(R)-(2-Amino-6-hydroxy-9 (H)-purinyl)-4(R)-(4(S)-(3-chlorophenyl)-2-oxo-1,3,2-dioxaphosphorinan-2(R)-yloxymethyl)-1(R)-methyl-7-oxo-3,6,8-trioxa-cis-bicyclo[3.3.0]octane] gave a melting point greater than 200 °C.
